The nature of data set [1]: Bioavailability following oral administration to rats. The conditions noted are these: rat, in vivo. As to the method:
Rats were obtained commercially and were pre-cannulated in the jugular vein. Animals were conscious at the time of the experiment. All animals were fasted overnight and until 4 hours post-dosing of a compound.
Rat blood samples (0.3 mL/sample) were collected from all animals prior to dosing and at different time-points up to 24 h post-dose into tubes containing EDTA. Two aliquots (100 μL each) were quenched with 300 μL methanol and stored at −20° C. prior to analysis.
To prepare analysis standards, 90 μL of rat blood was quenched with 300 μL methanol followed by 10 μL of spiking standard and/or 20 μL of internal standard. The sample tubes were vortexed for at least 2 min and then centrifuged at 3400 rpm for 20 min. The supernatant was then transferred to an injection vial or plate for analysis by LC-MS-MS.
To prepare samples for analysis, 20 μL of internal standard was added to each quenched sample tube. The sample tubes were vortexed for at least 2 min and then centrifuged at 3400 rpm for 20 min. The supernatant was then transferred to an injection vial or plate for analysis by LC-MS-MS.
LC/MS/MS analysis was performed using an API 2000 or API 4000 mass spectrometer equipped with a Shimadzu and or Agilent HPLC system are used for determination concentration of compounds in rat blood. A Varian Polaris C18, 3μ 50×4.6 mm column was used. 0.1% Formic acid in water and acetonitrile were applied as the mobile phase. Runs were 4.0 min. […] L-4-Chlorophenylalanine was used as an internal standard at m/z 200.00/154.00.
Non-compartmental analysis was performed using WinNonlin software (v.3.1 Professional Version, Pharsight Corporation, Mountain View, Calif.) on individual animal profiles. […]
The oral bioavailability (F %) of a compound was determined by comparing the area under the compound concentration vs time curve (AUC) following oral administration of a prodrug of a GABAB ligand with the AUC of the compound concentration vs time curve following intravenous administration of the GABAB ligand on a dose normalized basis.

The subject of data set [2] is GABAB(1)+/- and GABAB(1)+/+ mice. The conditions noted are these: 9.6 mg/kg, cited from earlier work.
Data set [3] has as its system S. murinus (house musk shrew). The conditions noted are these: subcutaneously 30 minutes prior to challenge at 1, 3, and 10 mg/kg; reduced from about 23; cited from earlier work.

For the molecule `Cl.NC(=O)CC[C@H](N)C(=O)NC[C@H](CC(=O)O)c1ccc(Cl)c(-c2ccc(C(=O)O)s2)c1` [Example 80], the “oral bioavailability (F %)” value in data set [1] was “greater than 10%”.
On the same count and under the same terms, the value for `C[C@H](N)C(=O)NC[C@H](CC(=O)O)c1ccc(Cl)c(OCc2ccncc2)c1.Cl` [Example 73, (3R)-4-((2S)-2-Aminopropanoylamino)-3-[4-chloro-3-(4-pyridylmethoxy)phenyl]butanoic acid hydrochloride] was “greater than 10%”.
As to `NCC(CC(=O)O)c1ccc(Cl)cc1` (centres unmarked) [baclofen], the hypothermia result in data set [2] (GABAB(1)+/- and GABAB(1)+/+ but not GABAB(1)-/- mice) is recorded as “marked hypothermia”. Also, the “time after administration at which hypothermia reaches its minimum” value in data set [2] was 60 to 80 min. Further, the “number of emetic episodes” value in data set [3] is on record as “about 13”.
